Counter-ions that a name gives are not always drawn.
Experiments:
Type in all cases: cell-based, human
[1] = system: SIX1::GFP cells; test: PIP-E6 pituitary induction and hormone release
Protocol: Induction of anterior pituitary gland cells: Pituitary placode cells were induced by culturing SIX1::GFP cells according to the PIP-E6 protocol, wherein pituitary factors SHH, FGF8, FGF10 and/or hypothalamus CM were supplemented in the culture media from days 6-15.
Induction of anterior pituitary gland cells: SIX1::GFP hPSCs were cultured according to a modified PIP-E6 protocol, wherein pituitary factors such as FGF8, FGF10 or SHH, etc., were included in the culture media from days 6-14. Cells were sorted based on expression of SIX1::GFP, and were replated at a concentration of 10,000 cells/cm^2 on PO/L/F, and were incubated with small molecule/growth factors for 2 weeks. (FIG. 68). […] (FIG. 69).

[2] = system: pre-placodal cells; test: Pituitary placode specification under modified PIP
Source text: Further treatment with agonists for SHH signaling (FIG. 39A) at the pre-placode stage (day 7-11) induced expression of the oral ectoderm marker SIX6 and PITX1 (FIG. 38B), master regulators of pituitary gland development (Tremblay et al., 1998).
Endocrine cells of the anterior pituitary gland are derived from three main precursors lineages (Scully and Rosenfeld, 2002). […] Induction of PIT1 and GATA2 precursor lineages was less efficient but was increased following treatment with the γ-secretase inhibitor DAPT (FIGS. 38F, 38G).
Differentiation of hormone producing cells: During placode induction protocol, Sonic Hedgehog (C25II-R&D 100 ng/ml) and Purmorphamine (Stemgent, 1 μM) were added between days 7-11 of PIP to promote differentiation towards pituitary placode anlage. The cells were maintained without passaging in N2 medium and treated with additional factors such as DAPT (Tocris, 10 μM), between day 13 and day 17 of differentiation to induce PIT1+ and GATA2+ precursor cells (see FIG. 39A).

[3] = system: hESC; test: Neural induction of hESC by dual SMAD inhibition (PAX6 expression); conditions: 10 uM to 30 nM, each added to 10 uM of SB431542
Protocol: In one embodiment, the present invention contemplates a method establishing an even cell distribution for inducing homogenous neural differentiation of hESCs. To this end, undifferentiated hESC were dissociated into single cells and re-plated onto Matrigel coated dishes in conditioned medium supplement with ROCK inhibitor, Y-27632 (Wananabe et al., 2007). After 72 hours, cells were switched from hESC conditions to knock-out serum replacement medium (KSR) containing either Noggin, SB4315242, or both factors and allowed to differentiate for a total of 11 days (FIG. 1A). […] Neural induction was monitored by expression of PAX6, an early marker of neuroectodermal differentiation (Callaerts, et al., Annu Rev Neurosci 20:483 (1997).
hESC cultures were disaggregated using accutase for 20 minutes, washed using hESC media and pre-plated on gelatin for 1 hour at 37° C. in the presence of ROCK inhibitor to remove MEFs. The nonadherent hESC were washed and plated on matrigel at a density of 10,000-25,000 cells/cm^2 on matrigel (BD) coated dishes in MEF conditioned hESC media (CM) spiked with 10 ng/mL of FGF-2 and ROCK-inhibitor. […] The ROCK inhibitor was withdrawn, and hESC were allowed to expand in CM for 3 days or until they were nearly confluent. […]

[4] = system: NSB derived neural precursor cells; test: Ventral patterning of NSB derived neural precursor cells by FP conditioned media; conditions: with CM from hESC derived FP
Source text: The FP has important functional roles during development in neural patterning and axonal path finding (Jessell, 2000). To assess the functional properties of hESCs derived FP conditioned media was isolated at days 9 and 11 and tested for expression of Netrin-1 in the medium using ELISA (FIG. 17A). Under normal NSB conditions, Netrin-1 is detectable at Day 9 and decreases at Day 11 while in the NSB+SHH condition, there is a 3.5 fold increase in Netrin-1 levels, increasing at Day 11 (FIG. 17B). SHH is a critical patterning factor secreted by FP cells and specifying ventral cell types in a dose-dependent manner. To test if hESCs derived FP secretes factors that can specify ventral precursor domains, conditioned media (CM) was isolated at Days 9 and 11 of the differentiation. At Day 6, exogenous SHH was removed and cultures were washed to eliminate any exogenously added SHH from the medium. Naïve neural progenitor cells were isolated at Day 11 of the control (NSB) protocol and cultured with either NSB CM or FP CM. After Day 5 of culture in the presence of CM, the inventors probed for the expression of ventral precursor markers and expression of the SHH responsive gene GLI2. […] Increase in the expression of ventral markers was confirmed at the level of protein (FIG. 17D).

C[C@H](NC(=O)Cc1cc(F)cc(F)c1)C(=O)N[C@H](C(=O)OC(C)(C)C)c1ccccc1 [DAPT]
proportion of each of the three pituitary precursor lineages [1]: modulated | Induction of PIT1 and GATA2 precursor lineages [2]: increased

c1cc(-c2cnn3cc(-c4ccc(OCCN5CCCCC5)cc4)cnc23)ccn1 [Dorsomorphin, 6-[4-[2-(1-Piperidinyl)ethoxy]phenyl]-3-(4-pyridinyl)-pyrazolo[1,5-a]pyrimidine dihydrochloride]
efficiency based on the percentage of PAX6+ cells, versus Noggin/SB431542 [3]: not as high

CC1=C2C[C@H]3[C@@H](CC=C4C[C@@H](O)CC[C@@]43C)[C@@H]2CC[C@]12O[C@@H]1C[C@H](C)CN[C@H]1[C@H]2C [cyclopamine]
NKX2.1, NKX6.1, and GLI2 expression [4]: significantly reduced

From patent US12618044B2, “Specification of functional cranial placode derivatives from human pluripotent stem cells” (MEMORIAL SLOAN-KETTERING CANCER CENTER, priority 2013, dated 2026)
